Laboratory results as given in PubChem BioAssay (NCI).
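Five concentrations, 48 hours, 96-well plates. GI50 is the concentration that inhibits growth by half. Definition used: TGI = concentration required for complete inhibition of growth.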

Key:
Test in all cases: NCI anticancer screen, dose series, 48 h
[1] = test system: RXF 393 renal
[2] = test system: HL-60(TB) leukemia
[3] = test system: NCI-H522 lung
[4] = test system: HOP-62 NSCLC
[5] = test system: NCI-H460 lung
[6] = test system: DU-145 prostate
[7] = test system: SK-OV-3 ovarian
[8] = test system: OVCAR-5 ovarian
[9] = test system: TK-10 renal
[10] = test system: SN12C renal
[11] = test system: SW-620 colon
[12] = test system: K-562 leukemia
[13] = test system: HCC-2998 colon
[14] = test system: OVCAR-3 ovarian
[15] = test system: EKVX NSCLC
[16] = test system: IGROV1 ovarian
[17] = test system: U251 CNS
[18] = test system: UACC-257 melanoma
[19] = test system: KM12 colon
[20] = test system: HS 578T breast
[21] = test system: HCT-116 colon
[22] = test system: A549 NSCLC
[23] = test system: NCI/ADR-RES ovarian
[24] = test system: SF-539 CNS
[25] = test system: MDA-MB-231 breast
[26] = test system: SK-MEL-2 melanoma
[27] = test system: MCF7 breast
[28] = test system: A498 renal
[29] = test system: RPMI-8226 leukemia
[30] = test system: OVCAR-8 ovarian
[31] = test system: BT-549 breast
[32] = test system: ACHN renal
[33] = test system: T-47D breast
[34] = test system: MDA-MB-435
[35] = test system: NCI-H226 lung
[36] = test system: HOP-92 NSCLC
[37] = test system: SNB-19 CNS
[38] = test system: UACC-62 melanoma
[39] = test system: SF-268 CNS
[40] = test system: MALME-3M melanoma
[41] = test system: UO-31 renal
[42] = test system: LOX IMVI melanoma
[43] = test system: CCRF-CEM leukemia
[44] = test system: COLO 205 colon
[45] = test system: CAKI-1 renal
[46] = test system: M14 melanoma
[47] = test system: SF-295 CNS
[48] = test system: HCT-15 colon
[49] = test system: SK-MEL-5 melanoma
[50] = test system: 786-0 renal
[51] = test system: PC-3 prostate
[52] = test system: NCI-H23 lung

O=C(OC(CNc1c(C(=O)c2ccccc2)c(=O)n(Cc2ccccc2)c(=O)n1Cc1ccccc1)CN1CCOCC1)c1ccccc1 (centres undefined)
GI50 [1]: 34.7 µM
TGI [1]: > 100 µM
GI50 [2]: 30.9 µM
TGI [2]: > 100 µM
GI50 [3]: 47.2 µM
TGI [3]: > 100 µM
GI50 [4]: 55.5 µM
TGI [4]: > 100 µM
GI50 [5]: 46.2 µM
TGI [5]: > 100 µM
GI50 [6]: > 100 µM
TGI [6]: > 100 µM
GI50 [7]: > 100 µM
TGI [7]: > 100 µM
GI50 [8]: > 100 µM
TGI [8]: > 100 µM
GI50 [9]: 69 µM
TGI [9]: > 100 µM
GI50 [10]: 50.7 µM
TGI [10]: > 100 µM
GI50 [11]: 76.4 µM
TGI [11]: > 100 µM
GI50 [12]: 32.3 µM
TGI [12]: > 100 µM
GI50 [13]: 47.4 µM
TGI [13]: > 100 µM
GI50 [14]: 34.1 µM
TGI [14]: > 100 µM
GI50 [15]: 52.9 µM
TGI [15]: > 100 µM
GI50 [16]: 65.2 µM
TGI [16]: > 100 µM
GI50 [17]: 42.3 µM
TGI [17]: > 100 µM
GI50 [18]: 76.8 µM
TGI [18]: > 100 µM
GI50 [19]: 42.1 µM
TGI [19]: > 100 µM
GI50 [20]: 40.2 µM
TGI [20]: > 100 µM
GI50 [21]: 41.1 µM
TGI [21]: > 100 µM
GI50 [22]: 49.3 µM
TGI [22]: > 100 µM
GI50 [23]: 47.7 µM
TGI [23]: > 100 µM
GI50 [24]: 91.8 µM
TGI [24]: > 100 µM
GI50 [25]: 42.8 µM
TGI [25]: > 100 µM
GI50 [26]: 56.7 µM
TGI [26]: > 100 µM
GI50 [27]: 48.1 µM
TGI [27]: > 100 µM
GI50 [28]: 37.4 µM
TGI [28]: > 100 µM
GI50 [29]: 26.8 µM
TGI [29]: 82.8 µM
GI50 [30]: 64.7 µM
TGI [30]: > 100 µM
GI50 [31]: 41.3 µM
TGI [31]: > 100 µM
GI50 [32]: 46.8 µM
TGI [32]: > 100 µM
GI50 [33]: > 100 µM
TGI [33]: > 100 µM
GI50 [34]: 86.7 µM
TGI [34]: > 100 µM
GI50 [35]: 49.9 µM
TGI [35]: > 100 µM
GI50 [36]: 29.6 µM
TGI [36]: > 100 µM
GI50 [37]: 71.3 µM
TGI [37]: > 100 µM
GI50 [38]: 38.8 µM
TGI [38]: > 100 µM
GI50 [39]: > 100 µM
TGI [39]: > 100 µM
GI50 [40]: > 100 µM
TGI [40]: > 100 µM
GI50 [41]: 52.8 µM
TGI [41]: > 100 µM
GI50 [42]: 59 µM
TGI [42]: > 100 µM
GI50 [43]: 33.9 µM
TGI [43]: > 100 µM
GI50 [44]: 46.3 µM
TGI [44]: > 100 µM
GI50 [45]: 34.7 µM
TGI [45]: > 100 µM
GI50 [46]: 38.4 µM
TGI [46]: > 100 µM
GI50 [47]: 41.6 µM
TGI [47]: > 100 µM
GI50 [48]: 38.5 µM
TGI [48]: > 100 µM
GI50 [49]: 37.7 µM
TGI [49]: > 100 µM
GI50 [50]: 70.4 µM
TGI [50]: > 100 µM
GI50 [51]: 38.6 µM
TGI [51]: > 100 µM
GI50 [52]: 43.2 µM
TGI [52]: > 100 µM
